Measurements from article PMC3423582 (Bioorganic & medicinal chemistry letters, 2012).
“Also recorded” adds a separate entry of the source.

How the values were obtained:
[1] = system: seven cell lines (MCF7, HT-1080, U2OS, RKO, H1299, BJ-TERT, BJ-TERT/LT/ST/RAS^V12); experiment: Lethality across the panel of seven cell lines; type: cell-based; settings: summary of Table 1
BJ-TERT/LT/ST/RAS^V12 [2] = settings: read-out: EC50 (BJ-TERT/LT/ST/RAS^V12); cited from earlier work
BJ-TERT [3] = settings: read-out: EC50 (BJ-TERT); cited from earlier work
BJ-TERT/LT/ST/RAS^V12 [4] = experiment: Lethality; type: cell-based; settings: ratio of LC50 values
[5] = system: caspase 3/7 in BJ-TERT cells; experiment: Caspase 3/7 activation; type: cell-based; settings: 28 hours, two-fold 14-point dilution series, Apo-ONE
BJ-TERT/LT/ST/RAS^V12 [6] = experiment: Kinetic analysis of induced cell death; type: cell-based; settings: treated at the LC90 (30 µM)
HT1080 cells = experiment: Modulatory profiling: suppression of lethality by biologically active compounds; type: cell-based, human; settings: z-VAD-fmk (45 µM) or Boc-D-fmk (50 µM)
BJ-TERT/LT/ST/RAS^V12 [7] = experiment: Cell death by photograph after 24 hours; type: cell-based; settings: compound 27 30 µM, staurosporine 1 µM
BJ-TERT [8] = experiment: Cell death by photograph after 24 hours; type: cell-based; settings: compound 27 30 µM, staurosporine 1 µM
[9] = system: caspase 3/7 in BJ-TERT/LT/ST/RAS^V12 cells; experiment: Caspase 3/7 activation; type: cell-based; settings: 28 hours, two-fold 14-point dilution series, Apo-ONE

Q: Which “Lethality across the seven cell lines (in words)” value [1] does the source give for `COC(OC)C1c2[nH]c3ccccc3c2CCN1C(=O)OCc1ccccc1` (centres unmarked) [Compound 34] here?
A: Its value is “showed lethality in at least five cell lines”.

Q: For `COC(=O)c1ccc(C2c3[nH]c4ccccc4c3CC(C(=O)OC)N2C(=O)CCl)cc1` (centres unmarked) [RSL3], which EC50 (BJ-TERT/LT/ST/RAS^V12 [2]) is on record?
A: The EC50 was 0.365 µM.

Q: What about the EC50 (BJ-TERT [3]) of the same molecule?
A: The EC50 was 2.8 µM.

Q: For `CN1C(=O)C(Cc2nccc3c4ccccc4n(C)c23)C(=O)N(C)C1=O` [Compound 8], which “Lethality across the seven cell lines (in words)” value [1] is on record?
A: Its value is “slightly more active”.

Q: What does the source list for `CCOC(=O)C1c2c(c3ccccc3n2C)CCN1C(=O)OC` (centres unmarked) [Compound 27]?
A: Enhancement of lethality compared with compound 1 in BJ-TERT/LT/ST/RAS^V12 (BJ-TERT/LT/ST/RAS^V12 [4]): four fold enhancement; Caspase 3/7 activation in BJ-TERT [5]: does not induce caspase activation; Time at which compound started to kill cells (BJ-TERT/LT/ST/RAS^V12 [6]): ≤ 12 h; Time to complete cell death (BJ-TERT/LT/ST/RAS^V12 [6]): ≤ 24 h; Effect of caspase inhibitors on the compound's lethality (HT1080 cells): not inhibited; Cell death in BJ-TERT/LT/ST/RAS^V12 cells (BJ-TERT/LT/ST/RAS^V12 [7]): observed only in BJ-TERT/LT/ST/RAS^V12 cells; Lethality across the seven cell lines (in words) [1]: showed lethality in at least five cell lines; also recorded: effective in inducing cell death in six out of seven cell lines; Cell death in BJ-TERT cells (BJ-TERT [8]): not BJ-TERT; Caspase 3/7 activation in BJ-TERT/LT/ST/RAS^V12 [9]: failed to induced caspase 3/7 activation

Q: For `CC(C=O)C1c2c(c3ccccc3n2C(=O)OC(C)(C)C)CCN1C(=O)OC(C)(C)C` (centres unmarked) [Compound 20], which “Lethality across the seven cell lines (in words)” value [1] is on record?
A: The value was “showed lethality in at least five cell lines”.

Q: For `CCOc1ccccc1-n1c(C(C)N2CCN(C(=O)COc3ccc(Cl)cc3)CC2)nc2ccccc2c1=O` (centres unmarked) [erastin], which EC50 (BJ-TERT/LT/ST/RAS^V12 [2]) is on record?
A: Its EC50 is 3.9 µM.

Q: And the EC50 (BJ-TERT [3])?
A: The EC50 was 23.7 µM.

Q: With `CC(CC1C(=O)N(C)C(=O)N(C)C1=O)C1c2c(c3ccccc3n2C(=O)OC(C)(C)C)CCN1C(=O)OC(C)(C)C` (centres unmarked) [Compound 21] as the molecule, how does the “Lethality across the seven cell lines (in words)” value [1] read?
A: The value was “modest to good potency in six cell lines; also recorded: showed lethality in at least five cell lines”.

Q: For `CCOC(=O)C1c2[nH]c3ccccc3c2CCN1C(=O)OCc1ccccc1` (centres unmarked) [Compound 29], which “Lethality across the seven cell lines (in words)” value [1] is on record?
A: The value was “showed lethality in at least five cell lines”.

Q: Which “Enhancement of lethality compared with compound 1 in BJ-TERT/LT/ST/RAS^V12” value (BJ-TERT/LT/ST/RAS^V12 [4]) does the source give for `CN1C(=O)C(C2NC=Cc3c2[nH]c2ccccc32)C(=O)N(C)C1=O` (centres unmarked) [Compound 2a, 5-(2,9-dihydro-1H-pyrido[3,4-b]indol-1-yl)-1,3-dimethylpyrimidine-2,4,6(1H,3H,5H)-trione] here?
A: The value was “two-fold more lethal”.

Q: And the “Lethality across the seven cell lines (in words)” value [1]?
A: Its value is “showed lethality in at least five cell lines”.

Q: What does the source list for `CN[C@@H]1C[C@H]2O[C@@](C)([C@@H]1OC)n1c3ccccc3c3c4c(c5c6ccccc6n2c5c31)C(=O)NC4` [Staurosporine, reference compound]?
A: Cell death in BJ-TERT/LT/ST/RAS^V12 cells (BJ-TERT/LT/ST/RAS^V12 [7]): induced cell death; Cell death in BJ-TERT cells (BJ-TERT [8]): induced cell death

Q: With `CC(C)(C)OC(=O)N1CCc2c(n(C(=O)OC(C)(C)C)c3ccccc23)C1CC=O` (centres unmarked) [Compound 13] as the molecule, how does the “Lethality across the seven cell lines (in words)” value [1] read?
A: Its value is “showed lethality in at least five cell lines”.
